Results taken from PubChem BioAssay AID434955 (Southern Research Specialized Biocontainment Screening …, 2010).

System: M. tuberculosis H37Rv growth with meropenem, percent inhibition
Assay: beta-lactam sensitization of Mtb H37Rv, H37Rv (AID 434955)

| Compound | IC90 |
| --- | --- |
| Nc1ccc(C(=O)O)c(O)c1 | 1.88 µM |
| COCCSc1nc2sc3c(c2c(=O)n1-c1ccccc1)CCN(C)C3 | 53.3 µM |
| CCc1cc2c(-c3ccccc3)cc(=O)oc2cc1OC(C)C(C)=O (configuration not stated) | 48.5 µM |
| O=C1OC(c2ccco2)=N/C1=C\c1ccc(-c2cccc(C(F)(F)F)c2)o1 | 53.4 µM |
| CC1(C)CC(CCNC(=O)CCl)(c2ccccc2)CCO1 (configuration not stated) | 8.14 µM |
| Cc1cccc(CSc2nnc(C)c(=O)n2N)c1 | 9.9 µM |
| CCCOc1ccc(C(=O)CCN2CCCCC2)cc1 | 36.4 µM |
| O=C(Nc1cccc(Cl)c1N1CCOCC1)c1ccc([N+](=O)[O-])o1 | 38.2 µM |
| CC(=O)c1ccc(OC(=O)N(c2ccccc2)c2ccccc2)cc1 | 32.9 µM |
| C=CCSc1nc2c(c(-c3ccsc3)c1C#N)CN(C)CC2 | 55.1 µM |
| CC1CCN(CC(CS(=O)(=O)c2ccc([N+](=O)[O-])cc2)N2CCC(C)CC2)CC1 (configuration not stated) | 31.5 µM |
| Cc1cc(C)cc(SCc2noc(C(=O)NC(C)C)c2C(=O)O)c1 | 27.3 µM |
| O=C1COc2ccc(C(=O)CCl)cc2N1 | 44.4 µM |
| Cc1c(C=O)c(C=O)c(C)n1Cc1ccccc1 | 69.3 µM |
| CN(C(=O)Nc1ccc(Cl)cc1)n1cnc2ccccc2c1=O | 48.6 µM |
| CCOc1ccc(N=c2cc(-c3ccc(OC)cc3)oc3ccccc23)cc1 | 50.3 µM |
| O=C(c1ccc(-c2ccc(Cl)cc2)o1)N1CCN(S(=O)(=O)c2cccs2)CC1 | 99.6 µM |
| COc1ccc(C(=O)/C=C/c2ccc(O)cc2)c(O)c1CC=C(C)C | 75.1 µM |
| Cc1ccc(CN2C(=O)N/C(=C\c3ccc(-c4ccc(C(=O)O)cc4C)o3)C2=O)cc1 | 14.7 µM |
| CCCCN(C)Cc1cc(=O)oc2cc3c(cc12)CCCC3 | 82.2 µM |
| O=C(N/N=C/c1c(O)n(Cc2ccc(F)cc2)c(=S)[nH]c1=O)c1ccncc1 | 9.8 µM |
| CCCCCn1c(=O)c(C(=O)Nc2cnccn2)c(O)c2ccccc21 | 13.8 µM |
| Cc1cccc(C)c1OCC(=O)NNC(=O)CNC(=O)c1ccc(OC(F)F)cc1 | 98.1 µM |
| O=C(N[C@@H](Cc1ccccc1)C(=O)CCl)OCc1ccccc1 | 46.9 µM |

| Compound | IC90 |
| --- | --- |
| CCC(CC)c1nnc(NC(=O)c2ccc(N3CCCCC3)c([N+](=O)[O-])c2)s1 | 44 µM |
| CCOC(=O)CNC(=O)/C(=C\c1ccc(F)cc1)NC(=O)c1ccccc1 | 35.1 µM |
| COCCNC(=S)N/N=C1\CC(C)CC(C)(C)C1 (configuration not stated) | 27.5 µM |
| CCOc1ccc2nc(SC3CC(=O)N(c4cccc(OC)c4)C3=O)sc2c1 (configuration not stated) | 25.7 µM |
| COc1ccc(-c2cc(C(F)F)nc(-n3nc(C)cc3C)n2)cc1 | 54.1 µM |
| CC1CCc2c(sc(NC(=O)CCCn3cnc([N+](=O)[O-])n3)c2C(N)=O)C1 (configuration not stated) | 90.4 µM |
| Cc1ccc(C)c(N2CCN(C3CCCC(C)C3)CC2)c1 (configuration not stated) | 48.2 µM |
| O=C1OC(/C=C/c2ccc(Cl)cc2Cl)=NC/1=C\c1cccs1 | 33.4 µM |
| O=c1c2cc(Cl)ccc2[nH]c(=S)n1Cc1cccs1 | 13.2 µM |
| Cc1nnc(SCC2=C(C(=O)O)N3C(=O)C(NC(=O)COc4ccc(F)cc4)C3SC2)s1 (configuration not stated) | 9.33 µM |
| CCN(CC)S(=O)(=O)c1ccc(N/N=C(\C)c2ccc(OC)cc2O)nc1 | 10.4 µM |
| COc1ccc(C(=O)NC(=S)Nc2ccc(S(=O)(=O)Nc3cc(C)on3)cc2)cc1OC | 29 µM |
| CN(C)C1=C(Cl)C(=O)N(c2ccc(Cl)c(Cl)c2)C1=O | 14.9 µM |
| CCC(C)NCCOCCOc1ccc(Cl)c2ccccc12 (configuration not stated) | 50.7 µM |
| Cc1[nH]n(-c2ccccc2)c(=O)c1/C=N/NC(=O)c1ccoc1C | 3.01 µM |
| CCOc1ccc(N2C(=O)CC(N)C2=O)cc1 (configuration not stated) | 52.4 µM |
| Cc1ccc(Nc2nc(N)nc(CC#N)n2)cc1 | 92.7 µM |
| O=C1CS/C(=N/N=C2C3CC4CC(C3)CC2C4)N1 | 13.8 µM |
| C/C(=N\NC(=S)Nc1ccccc1C)c1ccc(O)cc1 | 7.97 µM |
| CCOC(=O)CSc1nnc(CNC(=O)c2cccs2)n1CCc1ccccc1 | 49.5 µM |
| Cc1cc(C)c(-c2c(O)c3ccccc3n(C)c2=O)c(C)c1 | 42.2 µM |
| COCCCn1c(=O)/c(=C\c2ccccc2OC(C)C)s/c1=C(/C#N)C(=O)Nc1ccc(C(=O)O)cc1 | 18.5 µM |
| COC(=O)Cn1c2ccccc2c2nc(C)sc21 | 27.8 µM |
| O=c1oc(-c2ccccc2F)nc2scc(-c3ccccc3)c12 | 3.05 µM |

| Compound | IC90 |
| --- | --- |
| CCCOc1ccc(C(=O)N/N=C/c2ccc(-c3ccc(S(=O)(=O)Nc4ncccn4)cc3)o2)cc1 | 26.1 µM |
| CC(=O)Nc1cccc(/C(C)=N/NC(N)=S)c1 | 28.6 µM |
| C=C(C)C(=O)O[C@H]1C/C(C)=C\C(=O)/C=C(\C)[C@H](O)[C@@H]2OC(=O)C(=C)[C@@H]21 | 31.3 µM |
| C=CCNCCCOc1ccc(Cl)cc1C(C)(C)C | 52.6 µM |
| Cc1ccccc1CSc1nnc(C)c(=O)n1N | 32.3 µM |
| N#Cc1c(SCC(=O)O)nc(N2CCCCC2)c2c1CCCC2 | 27 µM |
| O=C(OCn1nnc2ccccc2c1=O)c1ccc2c(=O)n3c(nc2c1)CCC3 | 26.1 µM |
| O=C1OC(/C=C/c2ccccc2)=NC/1=C/c1ccco1 | 13.9 µM |
| CC(C)(C)c1ccc(OCc2ccc(C(=O)N/N=C3\CC4CC=CC34)cc2)cc1 (configuration not stated) | 45.3 µM |
| C/C(=N\NC(=O)c1ccncc1)c1c(O)n(-c2ccccc2)c(=O)[nH]c1=O | 3.94 µM |
| O=C1/C(=C/c2ccncc2)CCc2ccccc21 | 29.1 µM |
| Cc1cccc(N2CCN(CC3CCCCC3)CC2)c1C | 53.2 µM |
| O=S(=O)(Cc1ccccc1)c1cnc2ccccc2n1 | 48.6 µM |
| Nc1ncnc2c1c(-c1ccc(Oc3ccccc3)cc1)cn2C1CCCC1 | 60.3 µM |
| Cc1cc(C)n(-c2nc3ccccc3c(=O)n2OCC(=O)N(C)C)n1 | 23.3 µM |
| Cc1cc(=O)[nH]c(N/N=C/c2c(F)c(F)c(F)c(F)c2F)n1 | 82.3 µM |
| O=C(/C=C/c1ccc([N+](=O)[O-])cc1)c1cccs1 | 12.2 µM |
| Cc1ccc(C)c(SCc2noc(C(=O)NCC3CCCO3)c2C(=O)O)c1 (configuration not stated) | 48 µM |
| O=c1c2c3n(c(=S)nc2[nH]n1-c1ccccc1)CCCCC3 | 13.3 µM |
| Cc1onc(NC(=O)c2ccc([N+](=O)[O-])o2)c1Br | 16.4 µM |
| COc1cc(C(=O)Oc2cccnc2)cc(OC)c1OC | 13.6 µM |
| CCc1cc(C(N)=S)ccn1 | 12.8 µM |
| COC(=O)C1=C(C)NC(=O)/C1=C\c1cc(C)n(-c2c(C)cccc2C)c1C | 99.8 µM |
| Cc1ccc(C)c(CSc2nnc(C)c(=O)n2N)c1 | 20.4 µM |

| Compound | IC90 |
| --- | --- |
| CC(C)(C)c1ccc(C(=O)Oc2ccc3c(c2)OCC3=O)cc1 | 29.4 µM |
| CCN(CC)C(=O)CSc1nnc2nnc3cc(OC)ccc3n12 | 13.4 µM |
| O=C(Nc1nc2ccccc2n1CCN1CCCC1)C1CCCCC1 | 27.5 µM |
| Cn1c(=O)c2ccccc2n2c(CCl)nnc12 | 4.65 µM |
| COc1cc(C(=S)N2CCOCC2)ccc1OC(=O)c1ccc([N+](=O)[O-])cc1[N+](=O)[O-] | 5.92 µM |
| CCOC(=O)c1cnc2cc(-c3ccc(C(C)(C)C)cc3)nn2c1N | 5.74 µM |
| CC(C)(C)c1nn(-c2ccccc2)c2[nH]c(=O)c(CNc3ccc4c(c3)OCCO4)cc12 | 99.7 µM |
| COC(=O)CNC(c1ccccc1Cl)c1cc(Br)ccc1NC(=O)CCN1CCOCC1 (configuration not stated) | 34.3 µM |
| CCOC(=O)COc1ccc2nsnc2c1 | 26 µM |
| CCOC(=O)N1CCN(C(=O)CSc2nnc(COc3ccccc3)o2)CC1 | 18.4 µM |
| COc1cc(/C(C)=N\NC(N)=S)cc(OC)c1OC | 19.6 µM |
| O=C(CCSc1ccc(Cl)c(Cl)c1)NC12CC3CC(CC(C3)C1)C2 | 12.3 µM |
| S=C(NN=C1C2CC3CC(C2)CC1C3)Nc1ccccc1 | 51.4 µM |
| Cc1cccc(Cl)c1NC(=S)NN | 55.1 µM |
| COc1ccc(-c2cc(=Nc3ccc(C)cc3)c3ccccc3o2)cc1 | 98.3 µM |
| C=CCNC1=C(Cl)C(=O)N(c2cccc(Cl)c2Cl)C1=O | 30.2 µM |
| CO/N=C(\C(=O)N[C@@H]1C(=O)N2C(C(=O)O)=C(COC(C)=O)CS[C@H]12)c1csc(N)n1 (stereo in doubt) | 41.7 µM |
| CC1CCN(C(=S)NC(=O)c2ccccc2)CC1 | 13.6 µM |
| O=C(/C=C/c1ccccn1)c1cc(Br)ccc1O | 45.1 µM |
| COc1ccc(OC)c(-c2cc(C(=O)Nc3c(C)n(C)n(-c4ccccc4)c3=O)no2)c1 | 49.5 µM |
| Cc1onc(-c2ccccc2)c1C(=O)Nc1ccc(-c2nnc3n2CCCCC3)cc1 | 38.6 µM |
| O=C(CSC1CS(=O)(=O)c2cc([N+](=O)[O-])ccc21)NNC(=O)c1ccccc1 (configuration not stated) | 13.3 µM |
| CCCc1cc(C(=O)Nc2ccc(C(C)=O)cc2)no1 | 48.8 µM |
| C=C1C(=O)O[C@@H]2[C@H]1[C@@H](OC(=O)/C(C)=C/C)C/C(C)=C\C(=O)/C=C(\C)[C@@H]2O | 25.2 µM |

| Compound | IC90 |
| --- | --- |
| O=C(CCl)N(c1ccccc1)C1CCS(=O)(=O)C1 (configuration not stated) | 13.9 µM |
| O=C(CN1C(=O)c2cccc([N+](=O)[O-])c2C1=O)N1CCN(c2ccc(F)cc2)CC1 | 74.5 µM |
| CN1CCN(c2ccc(NC(=O)c3ccc(-c4cccc([N+](=O)[O-])c4)o3)cc2)CC1 | 6.71 µM |
| O=C(Nc1ccccc1)Nc1csc2ccccc12 | 20.9 µM |
| Cc1cc(C(=O)CSc2nnnn2-c2ccccc2)c(C)n1-c1ccc2c(c1)OCO2 | 60.9 µM |
| Cc1cc2ccccc2n1CCNC(=O)COc1ccccc1 | 42.8 µM |
| Nc1ccc(N=Nc2ccccc2O)c(N)c1 | 34 µM |
| Cc1cc(C=C2C(=O)NC(=S)NC2=O)c(C)n1-c1ccc2c(c1)OCO2 | 14.5 µM |
| CC1(C)CCN2CCC(C)(C)c3c(O)ccc1c32 | 49.3 µM |
| COCCCn1c(=O)/c(=C\c2cccc(OC)c2OC)s/c1=C(/C#N)C(=O)Nc1ccc(C(=O)O)cc1 | 24.6 µM |
| COc1cc(OC)cc(-c2cc3ccc(OC)cc3cn2)c1 | 76.9 µM |
| O=C(NCc1nc2ncc(Br)cc2[nH]1)c1ccccc1 | 54.9 µM |
| Cc1cc(C)cc(OCC(=O)NNC(=O)c2ccccn2)c1 | 16 µM |
| CC(C)C[C@H](NC(=O)c1nc[nH]c1C(=O)N1CCN(C(=O)OC(C)(C)C)CC1)C(=O)OCc1ccccc1 | 54.9 µM |
| CCNc1nc(CN2CCCCC2)nc2scc(-c3ccccc3)c12 | 57.3 µM |
| c1ccc2c(c1)Cn1nc(Cc3nc4c(s3)CCCC4)nc1-2 | 53 µM |
| O=C(Cc1cccc2ccccc12)N/N=C/c1ccc(O)c([N+](=O)[O-])c1 | 31.6 µM |
| Cc1nnc(SCc2cccc(Cl)c2)n(N)c1=O | 10.1 µM |
| CCCCC12CN3CC(C)(CN(C1)C3c1ccc([N+](=O)[O-])o1)C2=O (configuration not stated) | 23.5 µM |
| CCOC(=O)c1c(C)[nH]c(C)c1C(=O)COC(=O)/C=C/c1ccc(OC(F)F)cc1 | 91.4 µM |
| c1ccc(-c2cc(N3CCOCC3)nc3ccccc23)cc1 | 91.5 µM |
